Results on ten molecules are retold here after ChEMBL document CHEMBL3997794, “Design and synthesis of benzodiazepine analogs as isoform-selective human lysine deacetylase inhibitors” (Eur J Med Chem, 2017).

Molecules are shown by their SMILES.

Test [1] addresses T1, Histone deacetylase 1 (Homo sapiens, UniProt Q13547). Description: Inhibition of human KDAC1 using substrate A after 60 mins by fluorescence assay.
In test [2] the target is T2, Protein deacetylase HDAC6 (Homo sapiens, UniProt Q9UBN7).
T2 sequence (Q9UBN7 whole entry): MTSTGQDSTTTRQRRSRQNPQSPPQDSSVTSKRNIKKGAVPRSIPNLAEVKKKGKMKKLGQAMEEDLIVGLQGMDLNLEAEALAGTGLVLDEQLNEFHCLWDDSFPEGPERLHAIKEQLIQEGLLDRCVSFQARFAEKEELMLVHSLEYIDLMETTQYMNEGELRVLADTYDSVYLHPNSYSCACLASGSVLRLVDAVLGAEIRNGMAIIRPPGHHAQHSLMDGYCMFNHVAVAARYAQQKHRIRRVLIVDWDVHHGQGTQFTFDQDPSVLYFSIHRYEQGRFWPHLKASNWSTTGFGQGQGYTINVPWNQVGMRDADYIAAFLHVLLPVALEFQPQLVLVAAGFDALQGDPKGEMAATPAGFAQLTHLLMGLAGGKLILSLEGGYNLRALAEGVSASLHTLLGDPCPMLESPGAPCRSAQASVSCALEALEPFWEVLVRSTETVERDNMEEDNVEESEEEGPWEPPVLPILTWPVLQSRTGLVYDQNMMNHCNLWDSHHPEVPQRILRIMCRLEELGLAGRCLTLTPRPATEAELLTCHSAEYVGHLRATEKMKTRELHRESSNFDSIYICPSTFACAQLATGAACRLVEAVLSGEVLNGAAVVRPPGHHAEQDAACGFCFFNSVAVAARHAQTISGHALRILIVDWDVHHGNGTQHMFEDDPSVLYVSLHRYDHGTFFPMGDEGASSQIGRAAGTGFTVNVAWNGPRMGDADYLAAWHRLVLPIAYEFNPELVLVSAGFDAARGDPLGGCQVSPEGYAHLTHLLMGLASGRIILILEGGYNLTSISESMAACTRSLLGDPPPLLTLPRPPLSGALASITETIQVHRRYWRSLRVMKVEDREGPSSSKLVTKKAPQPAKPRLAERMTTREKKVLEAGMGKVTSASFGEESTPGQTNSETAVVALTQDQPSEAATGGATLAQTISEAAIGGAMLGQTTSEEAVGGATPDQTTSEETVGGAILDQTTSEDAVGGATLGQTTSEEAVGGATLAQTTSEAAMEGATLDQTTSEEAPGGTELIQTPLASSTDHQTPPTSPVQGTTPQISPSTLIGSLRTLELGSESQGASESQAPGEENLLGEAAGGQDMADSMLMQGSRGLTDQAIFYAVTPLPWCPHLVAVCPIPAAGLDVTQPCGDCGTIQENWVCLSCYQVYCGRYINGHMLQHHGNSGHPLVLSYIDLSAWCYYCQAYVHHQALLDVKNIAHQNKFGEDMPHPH
Put plainly: Inhibition of human KDAC6 using FITC-labeled histone H4 acetylated peptide as substrate after 60 mins by fluorescence assay.

Test [3] has as its target T3, Histone deacetylase 3 (Homo sapiens, UniProt O15379). Put plainly: Inhibition of human KDAC3 using FITC-labeled p53 acetylated peptide as substrate after 60 mins by fluorescence assay.
The target of test [4] is T1, Histone deacetylase 1. Description: Inhibition of human KDAC1 at 30 uM using substrate A after 60 mins by fluorescence assay relative to control.
The target of test [5] is T3, Histone deacetylase 3. Description: Inhibition of human KDAC3 at 30 uM using FITC-labeled p53 acetylated peptide as substrate after 60 mins by fluorescence assay relative to control.
For another test, the target named is T4, Histone deacetylase 8 (Homo sapiens, UniProt Q9BY41).
T4 sequence (Q9BY41 whole entry): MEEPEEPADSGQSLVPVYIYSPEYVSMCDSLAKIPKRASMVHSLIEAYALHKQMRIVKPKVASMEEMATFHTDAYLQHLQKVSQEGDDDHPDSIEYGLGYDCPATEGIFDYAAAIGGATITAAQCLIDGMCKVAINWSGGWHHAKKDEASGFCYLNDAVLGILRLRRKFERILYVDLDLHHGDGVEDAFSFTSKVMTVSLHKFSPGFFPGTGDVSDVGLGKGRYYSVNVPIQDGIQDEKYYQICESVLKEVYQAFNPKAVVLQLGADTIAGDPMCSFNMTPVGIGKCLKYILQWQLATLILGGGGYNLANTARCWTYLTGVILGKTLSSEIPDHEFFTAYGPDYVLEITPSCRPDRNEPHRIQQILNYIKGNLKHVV
Description: Inhibition of human KDAC8 after 60 mins by fluorescence assay.

The target in test [6] is T5, Protein deacetylase HDAC6 (Homo sapiens) (UniProt Q9UBN7).
T5 sequence (whole entry): T2 sequence (Q9UBN7 whole entry)
The following applies: at 30 µM.
Description: Inhibition of human KDAC6 at 30 uM using FITC-labeled histone H4 acetylated peptide as substrate after 60 mins by fluorescence assay relative to control

Test [7] deals with T6, Histone deacetylase 8 (Homo sapiens) (UniProt Q9BY41).
T6 sequence (whole entry): T4 sequence (Q9BY41 whole entry)
Put plainly: Inhibition of human KDAC8 at 30 uM after 60 mins by fluorescence assay relative to control.

T1 sequence (Q13547 whole entry): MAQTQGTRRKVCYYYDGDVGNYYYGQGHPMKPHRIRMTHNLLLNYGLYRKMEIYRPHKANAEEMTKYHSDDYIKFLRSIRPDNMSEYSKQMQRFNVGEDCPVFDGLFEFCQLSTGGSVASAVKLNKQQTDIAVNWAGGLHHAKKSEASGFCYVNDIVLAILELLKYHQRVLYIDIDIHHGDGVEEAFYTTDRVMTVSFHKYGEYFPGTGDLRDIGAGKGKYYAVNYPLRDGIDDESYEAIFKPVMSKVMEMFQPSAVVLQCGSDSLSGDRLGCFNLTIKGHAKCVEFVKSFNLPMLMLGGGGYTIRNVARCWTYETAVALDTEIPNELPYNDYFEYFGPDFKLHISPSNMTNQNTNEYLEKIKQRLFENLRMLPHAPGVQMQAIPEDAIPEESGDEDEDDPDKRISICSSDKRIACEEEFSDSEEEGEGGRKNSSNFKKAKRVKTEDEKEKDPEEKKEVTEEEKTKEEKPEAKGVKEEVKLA
T3 sequence (O15379 whole entry): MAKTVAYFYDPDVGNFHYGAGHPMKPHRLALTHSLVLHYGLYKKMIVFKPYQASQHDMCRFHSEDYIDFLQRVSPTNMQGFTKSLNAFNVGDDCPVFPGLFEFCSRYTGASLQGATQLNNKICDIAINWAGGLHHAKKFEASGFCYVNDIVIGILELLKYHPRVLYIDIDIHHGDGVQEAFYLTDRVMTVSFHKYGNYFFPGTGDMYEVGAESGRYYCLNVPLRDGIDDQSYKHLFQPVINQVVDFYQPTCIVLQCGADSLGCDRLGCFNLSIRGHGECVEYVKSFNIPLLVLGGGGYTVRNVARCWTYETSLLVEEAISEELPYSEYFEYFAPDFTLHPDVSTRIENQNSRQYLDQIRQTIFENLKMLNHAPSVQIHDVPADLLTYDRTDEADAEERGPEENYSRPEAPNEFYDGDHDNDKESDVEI

Regarding `O=C(CCCCN1C(=O)[C@H](CC(=O)NO)N=C(c2ccccc2)c2ccccc21)NO`, the IC50 on Histone deacetylase 1 [1] was 9.99 µM; in test [2], above 30 µM; against Histone deacetylase 3 [3], 10.4 µM; at Histone deacetylase 8 it was above 30 µM. In addition, the inhibition was 74.7% against Histone deacetylase 1 [4], 77.7% against Histone deacetylase 3 [5], 42.5% in test [6] and 10% in test [7].

Consider `O=C(CCCCN1C(=O)[C@H](Cc2cnc[nH]2)N=C(c2ccccc2)c2ccccc21)NO`, for which the IC50 against Histone deacetylase 1 [1] is 13.9 µM; in test [2], 4.98 µM; against Histone deacetylase 3 [3], 1.32 µM; against Histone deacetylase 8, above 30 µM. Further, the inhibition against Histone deacetylase 1 [4] is 61.4%; against Histone deacetylase 3 [5], 99%; in test [6], 84.6%; in test [7], 42.4%.

For the molecule `O=C1CN=C(c2ccccc2)c2ccccc2N1` [RO-052921], the IC50 (on Histone deacetylase 1 [1]; in test [2]; on Histone deacetylase 3 [3]; against Histone deacetylase 8) was above 30 µM in each case. Besides, the inhibition worked out at 7.95% against Histone deacetylase 1 [4], 3.45% at Histone deacetylase 3 [5], 0% in test [6] and 2.82% in test [7].

For `COC(=O)CCCCN1C(=O)[C@H](Cc2ccccc2)N=C(c2ccccc2)c2ccccc21`, the half-inhibitory concentration (IC50) (on Histone deacetylase 1 [1]; in test [2]; on Histone deacetylase 3 [3]; against Histone deacetylase 8) was above 30 µM throughout. For the same molecule, the inhibition against Histone deacetylase 1 [4] worked out at 1.72%; against Histone deacetylase 3 [5], 1.85%; in test [6] it was 6.49%; in test [7], 0%.

Turning to `CC(C)(C)OC(=O)C[C@@H]1N=C(c2ccccc2)c2ccccc2NC1=O`, the IC50 (against Histone deacetylase 1 [1]; in test [2]; against Histone deacetylase 3 [3]; on Histone deacetylase 8) was above 30 µM throughout. Further, the inhibition was determined as 9.6% against Histone deacetylase 1 [4], 3.95% at Histone deacetylase 3 [5], 0% in test [6] and 5.34% in test [7].

As to `CC(C)(C)OC[C@@H]1N=C(c2ccccc2)c2ccccc2N(CCCCC(=O)NO)C1=O`, the concentration for half-maximal inhibition (IC50) was 9 µM against Histone deacetylase 1 [1], 5.05 µM in test [2], 1.21 µM against Histone deacetylase 3 [3] and above 30 µM on Histone deacetylase 8. Besides, the inhibition was determined as 73.7% against Histone deacetylase 1 [4], 94.6% against Histone deacetylase 3 [5], 85.1% in test [6] and 26.9% in test [7].

For the molecule `CC(C)(C)OC(=O)CC[C@@H]1N=C(c2ccccc2)c2ccccc2N(CCCCC(=O)NO)C1=O`, the IC50 on Histone deacetylase 1 [1] worked out at 4.57 µM; in test [2], 2.35 µM; against Histone deacetylase 3 [3] it was 1.03 µM; at Histone deacetylase 8 it was 26.1 µM. Also, the inhibition on Histone deacetylase 1 [4] worked out at 83.8%; on Histone deacetylase 3 [5], 99.9%; in test [6] it was 93.7%; in test [7], 52.5%.

Turning to `CC(C)[C@@H]1N=C(c2ccccc2)c2ccccc2NC1=O`, the half-inhibitory concentration (IC50) (on Histone deacetylase 1 [1]; in test [2]; against Histone deacetylase 3 [3]; against Histone deacetylase 8) was above 30 µM throughout. The inhibition against Histone deacetylase 1 [4] was 0%; at Histone deacetylase 3 [5], 0%; in test [6] it was 3.25%; in test [7] it was 0%.

Consider `COC(=O)CCCCN1C(=O)CN=C(c2ccccc2)c2ccccc21`, for which the IC50 (against Histone deacetylase 1 [1]; in test [2]; against Histone deacetylase 3 [3]; against Histone deacetylase 8) was above 30 µM each time. Further, the inhibition was 0.19% against Histone deacetylase 1 [4], 0% at Histone deacetylase 3 [5], 0% in test [6] and 2.83% in test [7].

Turning to `CC[C@@H](C)[C@@H]1N=C(c2ccccc2)c2ccccc2N(CCCCC(=O)NO)C1=O`, the concentration for half-maximal inhibition (IC50) against Histone deacetylase 1 [1] is 11 µM; in test [2], 3.75 µM; at Histone deacetylase 3 [3], 1.03 µM; against Histone deacetylase 8, above 30 µM. Further, the inhibition is 75.1% at Histone deacetylase 1 [4], 96.4% on Histone deacetylase 3 [5], 90.9% in test [6] and 33.1% in test [7].
